ChEMBL document CHEMBL1152511, “Structural basis for alpha-conotoxin potency and selectivity” (Bioorg Med Chem, 2009)
Residues, ends and D or L forms follow the SMILES beside them.

Assays:
[1] = biological target: Neuronal acetylcholine receptor; alpha6/beta2 (Homo sapiens, UniProt P17787+Q15825); assay: Inhibition of alpha6beta2 nAChR; type: protein-complex assay
[2] = biological target: Neuronal acetylcholine receptor; alpha3/beta2 (Homo sapiens, UniProt P17787+P32297); assay: Inhibition of alpha3beta2 nAChR; type: protein-complex assay
Sequence of Neuronal acetylcholine receptor; alpha3/beta2 (P17787 whole entry): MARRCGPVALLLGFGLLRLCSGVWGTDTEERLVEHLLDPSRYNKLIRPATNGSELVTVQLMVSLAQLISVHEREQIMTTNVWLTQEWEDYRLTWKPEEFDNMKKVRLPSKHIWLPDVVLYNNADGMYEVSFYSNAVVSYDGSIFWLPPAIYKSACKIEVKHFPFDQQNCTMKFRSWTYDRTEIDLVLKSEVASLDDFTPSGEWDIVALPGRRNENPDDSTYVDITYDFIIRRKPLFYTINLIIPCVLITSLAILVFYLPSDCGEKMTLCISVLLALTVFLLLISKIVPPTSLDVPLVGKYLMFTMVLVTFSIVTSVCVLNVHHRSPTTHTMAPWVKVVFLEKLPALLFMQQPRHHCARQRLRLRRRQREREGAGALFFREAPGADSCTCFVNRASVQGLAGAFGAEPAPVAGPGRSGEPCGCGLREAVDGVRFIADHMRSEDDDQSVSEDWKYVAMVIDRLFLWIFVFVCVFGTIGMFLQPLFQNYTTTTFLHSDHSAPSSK
Sequence of Neuronal acetylcholine receptor; alpha3/beta2 (P32297 whole entry): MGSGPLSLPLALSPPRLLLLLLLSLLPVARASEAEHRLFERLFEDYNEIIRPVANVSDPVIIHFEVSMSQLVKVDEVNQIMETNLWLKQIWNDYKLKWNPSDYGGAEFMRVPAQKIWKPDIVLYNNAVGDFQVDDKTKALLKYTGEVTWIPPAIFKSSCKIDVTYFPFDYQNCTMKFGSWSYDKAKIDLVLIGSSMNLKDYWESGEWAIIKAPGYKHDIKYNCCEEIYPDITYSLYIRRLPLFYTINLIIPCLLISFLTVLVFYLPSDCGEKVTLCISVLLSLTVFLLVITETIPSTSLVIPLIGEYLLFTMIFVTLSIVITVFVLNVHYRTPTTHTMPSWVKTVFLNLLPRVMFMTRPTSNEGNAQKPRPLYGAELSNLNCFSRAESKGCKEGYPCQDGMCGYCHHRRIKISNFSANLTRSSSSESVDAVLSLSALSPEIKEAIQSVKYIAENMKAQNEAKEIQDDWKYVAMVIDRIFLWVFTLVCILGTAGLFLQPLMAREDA

[3] = Selectivity ratio of IC50 for alpha6beta2 nAChR to IC50 for alpha3beta2 nAChR
[4] = species on record: Macaca mulatta; assay: Binding affinity to monkey alpha-6-(non-alpha-4)-beta-2 nAChR
[5] = species on record: Macaca mulatta; assay: Selectivity ratio of monkey alpha-6-alpha-4-beta-2 nAChR over monkey alpha-6-(non-alpha-4)-beta-2 nAChR
[6] = species on record: Macaca mulatta; assay: Binding affinity to monkey alpha-6-alpha-4-beta-2 nAChR
[7] = Selectivity for alpha3beta2 nAChR over alpha6beta2 nAChR

Sequence of Neuronal acetylcholine receptor; alpha6/beta2 (P17787 whole entry): as the sequence (P17787 whole entry) above
Sequence of Neuronal acetylcholine receptor; alpha6/beta2 (Q15825 whole entry): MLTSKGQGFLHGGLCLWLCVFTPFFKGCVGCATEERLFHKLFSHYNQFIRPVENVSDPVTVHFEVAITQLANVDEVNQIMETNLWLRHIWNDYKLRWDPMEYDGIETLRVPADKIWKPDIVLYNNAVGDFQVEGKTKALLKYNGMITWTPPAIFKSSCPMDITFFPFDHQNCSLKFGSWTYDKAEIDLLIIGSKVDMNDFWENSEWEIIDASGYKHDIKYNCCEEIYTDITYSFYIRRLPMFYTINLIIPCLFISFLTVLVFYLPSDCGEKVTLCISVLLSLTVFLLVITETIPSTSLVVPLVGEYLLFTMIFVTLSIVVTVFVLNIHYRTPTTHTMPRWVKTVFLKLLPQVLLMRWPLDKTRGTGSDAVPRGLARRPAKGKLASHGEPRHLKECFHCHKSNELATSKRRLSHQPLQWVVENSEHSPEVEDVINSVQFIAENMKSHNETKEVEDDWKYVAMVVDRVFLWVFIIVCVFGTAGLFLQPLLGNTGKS

| SMILES | IC50 [1] [nM] | IC50 [2] [nM] | Ratio IC50 [3] | Activity [4] [fM] | Selectivity ratio [5] | Activity [6] [pM] | Selectivity ratio [7] |
| --- | --- | --- | --- | --- | --- | --- | --- |
| CC(C)C[C@H](NC(=O)[C@H](CC(N)=O)NC(=O)[C@H](CO)NC(=O)[C@H](Cc1cnc[nH]1)NC(=O)[C@H](CCC(=O)O)NC(=O)[C@H](CC(C)C)NC(=O)[C@H](Cc1cnc[nH]1)NC(=O)[C@H](CS)NC(=O)[C@@H](NC(=O)[C@@H]1CCCN1C(=O)[C@H](CC(N)=O)NC(=O)[C@H](CO)NC(=O)[C@H](CS)NC(=O)[C@H](CS)NC(=O)CN)C(C)C)C(=O)N[C@@H](CS)C(=O)O | 0.39 | 0.5 |  |  |  |  |  |
| CC[C@H](C)[C@H](NC(=O)[C@H](Cc1cnc[nH]1)NC(=O)[C@H](CCC(N)=O)NC(=O)[C@H](CC(N)=O)NC(=O)[C@H](CC(N)=O)NC(=O)CNC(=O)[C@H](C)NC(=O)[C@H](CS)NC(=O)[C@H](C)NC(=O)[C@@H]1CCCN1C(=O)[C@H](Cc1cnc[nH]1)NC(=O)[C@H](CO)NC(=O)[C@H](CS)NC(=O)[C@H](CS)NC(=O)CN)C(=O)N[C@@H](CS)C(=O)O | 3 | 1.1 | 0.4 |  |  |  |  |
| CC(C)C[C@H](NC(=O)[C@H](Cc1cnc[nH]1)NC(=O)[C@H](CS)NC(=O)[C@@H](NC(=O)[C@@H]1CCCN1C(=O)[C@H](CC(N)=O)NC(=O)[C@H](CO)NC(=O)[C@H](CS)NC(=O)[C@H](CS)NC(=O)CN)C(C)C)C(=O)N[C@@H](C)C(=O)N[C@@H](Cc1cnc[nH]1)C(=O)N[C@@H](CO)C(=O)N[C@@H](CC(N)=O)C(=O)N[C@@H](CC(C)C)C(=O)N[C@@H](CS)C(=O)O (H-GCCSNPVCHLAHSNLC-OH) | 0.16 | 8.72 | 54.5 | 9.7 | 5300 | 51 |  |
| CC[C@H](C)[C@H](NC(=O)[C@H](CCC(N)=O)NC(=O)[C@@H]1CCCN1C(=O)[C@H](CC(N)=O)NC(=O)[C@H](Cc1cnc[nH]1)NC(=O)[C@@H](NC(=O)[C@@H](NC(=O)[C@H](CS)NC(=O)[C@@H](NC(=O)[C@@H]1CCCN1C(=O)[C@H](CC(N)=O)NC(=O)[C@H](CO)NC(=O)[C@H](CS)NC(=O)[C@H](CS)NC(=O)[C@@H]1CCCN1C(=O)[C@H](CC(=O)O)NC(=O)[C@@H](N)CCCNC(=N)N)C(C)C)[C@@H](C)O)C(C)C)C(=O)N[C@@H](CS)C(=O)O (H-RDPCCSNPVCTVHNPQIC-OH) | 0.95 | 74.2 | 78.1 |  |  |  | 75 |
